# In ChEMBL document CHEMBL4330077, “1,1-Diheterocyclic Ethylenes Derived from Quinaldine and Carbazole as New Tubulin-Polymerization Inhibitors: Synthesis, Metabolism, and Biological Evaluation” (J Med Chem, 2019):
# The source made the active and inactive calls. No cut-off for these calls is given here.
# What was measured:
# [1] = Inhibition of sheep brain tubulin polymerization by DAPI-fluorescence based fluorimetry; design: species or system Ovis aries
# HCT-116 [2] = assay: cells; details: Homo sapiens, HCT-116, 72 h
# Description: Antiproliferative activity against human HCT116 cells after 72 hrs by MTS assay
# [3] = Aqueous solubility of the compound in phosphate buffer at pH 7.4 after 4 hrs by HPLC-UV analysis; format: physicochemical
# [4] = Drug metabolism in rat liver microsomes assessed as cytochrome P450-mediated hydroxylated metabolite formation at 100 uM after 6 hrs in presence of NADPH generating system by HPLC-UV-MS analysis; format: ADME
# [5] = Drug metabolism in rat liver microsomes assessed as cytochrome P450-mediated N-demethylated metabolite formation at 100 uM after 6 hrs in presence of NADPH generating system by HPLC-UV-MS analysis; format: ADME
# Cytochrome P450 [6] = assay: Drug metabolism in human liver microsomes assessed as cytochrome P450-mediated hydroxylated metabolite formation at 100 uM after 6 hrs in presence of NADPH generating system by HPLC-UV-MS analysis; format: ADME
# [7] = Lipophilicity, log P of the compound after 24 hrs by HPLC analysis; format: physicochemical
# Cytochrome P450 [8] = assay: Drug metabolism in human liver microsomes assessed as cytochrome P450-mediated N-demethylated metabolite formation at 100 uM after 6 hrs in presence of NADPH generating system by HPLC-UV-MS analysis; format: ADME
# [9] = Drug metabolism in rat liver microsomes assessed as cytochrome P450-mediated 4-(1-(3-hydroxy-4-methoxyphenyl)vinyl)-2,6-dimethoxyphenol metabolite formation at 100 uM after 6 hrs in presence of NADPH generating system by HPLC-UV-MS analysis; format: ADME
# Cytochrome P450 [10] = assay: Drug metabolism in human liver microsomes assessed as cytochrome P450-mediated 2-methoxy-5-(1-(3,4,5-trimethoxyphenyl)vinyl)cyclohexa-2,5-diene-1,4-dione metabolite formation at 100 uM after 6 hrs in presence of NADPH generating system by HPLC-UV-MS analysis; format: ADME
# HT-29 = assay: cells; details: Homo sapiens, HT-29, 72 h
# Description: Antiproliferative activity against human HT-29 cells after 72 hrs by MTS assay
# A549 [11] = assay: cells; details: Homo sapiens, A549, 72 h
# Description: Antiproliferative activity against human A549 cells after 72 hrs by MTS assay
# K562 = assay: cells; details: Homo sapiens, K562, 72 h
# HUVEC [12] = assay: cells; details: Homo sapiens, 72 h
# Description: Antiproliferative activity against HUVEC after 72 hrs by MTS assay
# U-87 MG = assay: Antiproliferative activity against human U87MG cells after 72 hrs by MTS assay; format: functional, cell-based, U-87MG ATCC
# Cytochrome P450 [13] = assay: Drug metabolism in human liver microsomes assessed as cytochrome P450-mediated 4-(1-(3-hydroxy-4-methoxyphenyl)vinyl)-2,6-dimethoxyphenol metabolite formation at 100 uM after 6 hrs in presence of NADPH generating system by HPLC-UV-MS analysis; format: ADME
# [14] = Drug metabolism in rat liver microsomes assessed as cytochrome P450-mediated 2-methoxy-5-(1-(3,4,5-trimethoxyphenyl)vinyl)cyclohexa-2,5-diene-1,4-dione metabolite formation at 100 uM after 6 hrs in presence of NADPH generating system by HPLC-UV-MS analysis; format: ADME
# Cytochrome P450 [15] = assay: Drug level in human liver microsomes treated with isocombratestatin-A4 assessed as CYP450-mediated compound metabolism at 100 uM after 6 hrs in presence of NADPH generating system by HPLC-UV-MS analysis; format: ADME
# [16] = Drug level in rat liver microsomes treated with isocombratestatin-A4 assessed as CYP450-mediated compound metabolism at 100 uM after 6 hrs in presence of NADPH generating system by HPLC-UV-MS analysis; format: ADME
# HCT-116 [17] = assay: Induction of cell cycle arrest in human HCT116 cells assessed as accumulation at G2M phase after 24 hrs by propidium iodide staining based flow cytometry; format: functional
# HUVEC [18] = assay: Antiangiogenic activity in HUVEC assessed as inhibition of tube formation after 2 to 6 hrs by matrigel assay; format: functional, cell-based; details: Homo sapiens
# [19] = Metabolic stability in rat liver microsomes assessed as parent compound at 100 uM up to […] in presence of NADPH generating system by HPLC-MS/MS analysis; format: ADME, Microsome
# [20] = Drug metabolism in rat liver microsomes assessed as cytochrome P450-mediated 3-(1-(2-methylquinolin-4-yl)vinyl)-9H-carbazole metabolite formation at 100 uM after 6 hrs in presence of NADPH generating system by HPLC-UV-MS analysis; format: ADME
# HUVEC [21] = assay: Antiangiogenic activity in HUVEC assessed as disorganization of the vasculature network at 10 nM after 6 hrs by matrigel assay; format: functional, cell-based; details: Homo sapiens
# K-562R [22] = assay: Antiproliferative activity against human K562R cells after 72 hrs by MTS assay; format: functional, cell-based
# [23] = Metabolic stability in human liver microsomes assessed as parent compound at 100 uM up to […] in presence of NADPH generating system by HPLC-MS/MS analysis; format: ADME, Microsome
# A549 [24] = assay: Potency index, ratio of CA-4 IC50 to compound IC50 for antiproliferative activity against human A549 cells; format: functional
# K-562R [25] = assay: Potency index, ratio of CA-4 IC50 to compound IC50 for antiproliferative activity against human K562R cells; format: functional
# Cytochrome P450 [26] = assay: Drug metabolism in human liver microsomes assessed as cytochrome P450-mediated 3-(1-(2-methylquinolin-4-yl)vinyl)-9H-carbazole metabolite formation at 100 uM after 6 hrs in presence of NADPH generating system by HPLC-UV-MS analysis; format: ADME
# K-562R [27] = assay: Potency index, ratio of iso-CA-4 IC50 to compound IC50 for antiproliferative activity against human K562R cells; format: functional
# HCT-116 [28] = assay: Induction of cell cycle arrest in human HCT116 cells assessed as accumulation at G2M phase at 10 nM after 24 hrs by propidium iodide staining based flow cytometry relative to control; format: functional
# HUVEC [29] = assay: Antiangiogenic activity in HUVEC assessed as disorganization of the vasculature network at 50 nM after 2 hrs by matrigel assay; format: functional, cell-based; details: Homo sapiens
# [30] = Drug level in rat liver microsomes treated with 9-Methyl-3-(1-(2-methylquinolin-4-yl)vinyl)-9H-carbazole assessed as CYP450-mediated compound metabolism at 100 uM after 6 hrs in presence of NADPH generating system by HPLC-UV-MS analysis; format: ADME
# Cytochrome P450 [31] = assay: Drug level in human liver microsomes treated with 9-Methyl-3-(1-(2-methylquinolin-4-yl)vinyl)-9H-carbazole assessed as CYP450-mediated compound metabolism at 100 uM after 6 hrs in presence of NADPH generating system by HPLC-UV-MS analysis; format: ADME
# [32] = Drug metabolism in rat liver microsomes assessed as cytochrome P450-mediated O-demethylated metabolite formation at 100 uM after 6 hrs in presence of NADPH generating system by HPLC-UV-MS analysis; format: ADME
# Cytochrome P450 [33] = assay: Drug metabolism in human liver microsomes assessed as cytochrome P450-mediated O-demethylated metabolite formation at 100 uM after 6 hrs in presence of NADPH generating system by HPLC-UV-MS analysis; format: ADME
# Cytochrome P450 [34] = assay: Drug metabolism in human liver microsomes assessed as cytochrome P450-mediated 6-(1-(3-hydroxy-4-methoxyphenyl)vinyl)-2,3,4-trimethoxyphenol metabolite formation at 100 uM after 6 hrs in presence of NADPH generating system by HPLC-UV-MS analysis; format: ADME
# [35] = Drug metabolism in rat liver microsomes assessed as cytochrome P450-mediated 6-(1-(3-hydroxy-4-methoxyphenyl)vinyl)-2,3,4-trimethoxyphenol metabolite formation at 100 uM after 6 hrs in presence of NADPH generating system by HPLC-UV-MS analysis; format: ADME
smiles,measurement,setting,value
C=C(c1ccc2c(c1)c1ccccc1n2C)c1nc(C)nc2ccccc12,IC50,[1],2100 nM
same,IC50,HCT-116 [2],40 nM
C=C(c1ccc2c(ccn2C)c1)c1cc(C#N)nc2ccccc12,solubility at 4 h,[3],3.11 µg/mL
same,Drug metabolism,[4],Metabolite_Detected
same,Drug metabolism,[5],Metabolite_Detected
same,Drug metabolism,Cytochrome P450 [6],Metabolite_Detected
same,logP at 24 h,[7],2.37
same,Drug metabolism,Cytochrome P450 [8],Metabolite_Detected
C=C(c1ccnc(C)c1)c1ccc2c(c1)c1ccccc1n2C,IC50,[1],6200 nM
same,IC50,HCT-116 [2],19 nM
C=C(c1ccc2c(c1)c1ccccc1n2C)c1cc(C#N)nc2ccccc12,IC50,[1],3600 nM
same,IC50,HCT-116 [2],12 nM
COc1ccc(/C=C\c2cc(OC)c(OC)c(OC)c2)cc1O [COMBRETASTATIN A4],IC50,[1],2200 nM
same,Drug metabolism,[9],Metabolite_Detected
same,Drug metabolism,Cytochrome P450 [10],Metabolite_Detected
same,IC50,HT-29,> 8000 nM
same,IC50,HCT-116 [2],2.2 nM
same,IC50,A549 [11],200 nM
same,IC50,K562,5 nM
same,IC50,HUVEC [12],1.7 nM
same,IC50,U-87 MG,4 nM
same,Drug metabolism,Cytochrome P450 [13],Metabolite_Detected
same,Drug metabolism,[14],Metabolite_Detected
C=C(c1ccc(OC)c(O)c1)c1cc(OC)c(O)c(OC)c1,Drug metabolism,Cytochrome P450 [15],Metabolite_Detected
same,Drug metabolism,[16],Metabolite_Detected
C=C(C1=CC(=O)C(OC)=CC1=O)c1cc(OC)c(OC)c(OC)c1,Drug metabolism,Cytochrome P450 [15],Metabolite_Detected
same,Drug metabolism,[16],Metabolite_Detected
C=C(c1ccc2c(c1)c1cc(F)ccc1n2C)c1cn(C)c(=O)n(C)c1=O,IC50,HCT-116 [2],300 nM
C=C(c1cc(OC)c(OC)c(OC)c1)c1ccc2c(c1)c1ccccc1n2C,IC50,[1],3000 nM
same,IC50,HCT-116 [2],15 nM
C=C(c1ccc2c(c1)c1ccccc1n2C)c1cn(C)c(=O)n(C)c1=O,IC50,HCT-116 [2],195 nM
C=C(c1ccc2c(c1)c1ccccc1n2C)c1cc(C)nc2ccccc12,Activity,HCT-116 [17],Dose-dependent effect
same,Activity,HUVEC [18],Dose-dependent effect
same,Stability,[19],Stable
same,IC50,[1],2000 nM
same,solubility at 4 h,[3],0.42 µg/mL
same,Drug metabolism,[20],Metabolite_Detected
same,Activity,HUVEC [21],Active
same,Drug metabolism,[4],Metabolite_Detected
same,IC50,K-562R [22],0.9 nM
same,Stability,[23],Stable
same,IC50,HT-29,3 nM
same,Ratio IC50,A549 [24],67
same,Ratio IC50,K-562R [25],27
same,Drug metabolism,Cytochrome P450 [26],Metabolite_Detected
same,IC50,HCT-116 [2],2 nM
same,IC50,A549 [11],3 nM
same,Ratio IC50,K-562R [27],3
same,IC50,K562,2 nM
same,Activity,HCT-116 [28],>90%
same,Drug metabolism,[5],Metabolite_Detected
same,Drug metabolism,Cytochrome P450 [6],Metabolite_Detected
same,IC50,HUVEC [12],0.81 nM
same,IC50,U-87 MG,1.9 nM
same,logP at 24 h,[7],5.29
same,Drug metabolism,Cytochrome P450 [8],Metabolite_Detected
same,Activity,HUVEC [29],Active
C=C(c1cc(C)nc(C)c1)c1ccc2c(ccn2C)c1,IC50,[1],3700 nM
same,solubility at 4 h,[3],0.54 µg/mL
same,Drug metabolism,[4],Metabolite_Detected
same,IC50,K-562R [22],0.84 nM
same,IC50,HCT-116 [2],3.8 nM
same,IC50,A549 [11],61.9 nM
same,IC50,K562,1.82 nM
same,Drug metabolism,[5],Metabolite_Detected
same,Drug metabolism,Cytochrome P450 [6],Metabolite_Detected
same,IC50,HUVEC [12],0.9 nM
same,IC50,U-87 MG,31.6 nM
same,logP at 24 h,[7],5.2
same,Drug metabolism,Cytochrome P450 [8],Metabolite_Detected
C=C(c1ccc2[nH]c3ccccc3c2c1)c1cc(C)nc2ccccc12,Drug metabolism,[30],Metabolite_Detected
same,Drug metabolism,Cytochrome P450 [31],Metabolite_Detected
C=C(c1ccc(OC)c(O)c1)c1cc(OC)c(OC)c(OC)c1,IC50,[1],2100 nM
same,Drug metabolism,[32],Metabolite_Detected
same,solubility at 4 h,[3],11.6 µg/mL
same,Drug metabolism,[4],Metabolite_Detected
same,IC50,K-562R [22],3 nM
same,Drug metabolism,Cytochrome P450 [33],Metabolite_Detected
same,IC50,HT-29,265 nM
same,IC50,A549 [11],8 nM
same,IC50,K562,2 nM
same,Drug metabolism,Cytochrome P450 [34],Metabolite_Detected
same,Drug metabolism,[5],Metabolite_Detected
same,Drug metabolism,Cytochrome P450 [6],Metabolite_Detected
same,IC50,HUVEC [12],2 nM
same,IC50,U-87 MG,8.2 nM
same,Drug metabolism,[35],Metabolite_Detected
same,logP,[7]; 24 h,3.25
same,Drug metabolism,Cytochrome P450 [8],Metabolite_Detected
C=C(c1ccc(OC)c(O)c1)c1cc(OC)c(OC)c(OC)c1O,Drug metabolism,Cytochrome P450 [15],Metabolite_Detected
same,Drug metabolism,[16],Metabolite_Detected
